pIC50: −log10 of the molar value.
Tests used:
Format in all cases: biochemical
Details in all cases: method of U.S. Ser. No. 11/473,347 or similar
Fms = Fms (Homo sapiens, UniProt P07333); experiment: Fms kinase activity assay
Source text: (§1) Assays for the activity of kinases, including, but not limited to, Fms, Kit, B-Raf, B-Raf V600E, B-Raf V600E/T5291 and c-Raf-1 are known in the art, for example as described in US Patent Publication Number US20070032519 and U.S. patent application Ser. No. 11/473,347 (see also, PCT publication WO2007002433), the disclosures of which are hereby incorporated by reference with respect to such assays.
(§2) Compounds P-0001 was screened by at least one of the methods described in U.S. patent application Ser. No. 11/473,347, or by similar methods.

Kdr = Kdr (Homo sapiens, UniProt P35968); experiment: Kdr kinase activity assay
Source text: as §1, §2

Kit = Kit (Homo sapiens, UniProt P10721); experiment: Kit kinase activity assay
Source text: as §1, §2

Btk = Btk (Homo sapiens, UniProt Q06187); experiment: Btk kinase activity assay
Source text: as §1, §2

Measured: pIC50

Sequence of Fms (P07333 20-972): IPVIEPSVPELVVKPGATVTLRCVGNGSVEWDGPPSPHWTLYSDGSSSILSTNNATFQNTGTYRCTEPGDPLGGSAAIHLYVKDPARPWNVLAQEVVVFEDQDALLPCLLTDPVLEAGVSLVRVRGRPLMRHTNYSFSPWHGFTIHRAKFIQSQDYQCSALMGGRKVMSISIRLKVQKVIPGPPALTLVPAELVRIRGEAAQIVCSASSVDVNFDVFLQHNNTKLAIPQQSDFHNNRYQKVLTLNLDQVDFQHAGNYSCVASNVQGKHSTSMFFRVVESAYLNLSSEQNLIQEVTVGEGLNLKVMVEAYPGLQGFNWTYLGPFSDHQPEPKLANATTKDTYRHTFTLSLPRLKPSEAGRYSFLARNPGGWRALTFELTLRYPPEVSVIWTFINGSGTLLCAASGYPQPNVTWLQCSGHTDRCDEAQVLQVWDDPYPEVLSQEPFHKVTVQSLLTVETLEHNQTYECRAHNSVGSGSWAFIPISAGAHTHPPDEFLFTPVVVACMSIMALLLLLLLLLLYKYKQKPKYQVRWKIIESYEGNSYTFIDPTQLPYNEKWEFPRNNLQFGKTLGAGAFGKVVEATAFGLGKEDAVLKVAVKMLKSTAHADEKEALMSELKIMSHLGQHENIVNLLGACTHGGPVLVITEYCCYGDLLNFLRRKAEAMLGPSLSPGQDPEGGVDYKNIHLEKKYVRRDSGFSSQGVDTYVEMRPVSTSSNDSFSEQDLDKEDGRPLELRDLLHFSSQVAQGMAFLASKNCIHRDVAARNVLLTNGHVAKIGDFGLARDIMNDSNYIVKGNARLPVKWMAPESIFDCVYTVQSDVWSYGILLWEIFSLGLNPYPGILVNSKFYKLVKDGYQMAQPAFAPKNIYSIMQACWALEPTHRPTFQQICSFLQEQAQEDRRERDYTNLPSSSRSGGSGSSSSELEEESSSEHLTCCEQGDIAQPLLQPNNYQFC
Sequence of Kit (P10721 26-976): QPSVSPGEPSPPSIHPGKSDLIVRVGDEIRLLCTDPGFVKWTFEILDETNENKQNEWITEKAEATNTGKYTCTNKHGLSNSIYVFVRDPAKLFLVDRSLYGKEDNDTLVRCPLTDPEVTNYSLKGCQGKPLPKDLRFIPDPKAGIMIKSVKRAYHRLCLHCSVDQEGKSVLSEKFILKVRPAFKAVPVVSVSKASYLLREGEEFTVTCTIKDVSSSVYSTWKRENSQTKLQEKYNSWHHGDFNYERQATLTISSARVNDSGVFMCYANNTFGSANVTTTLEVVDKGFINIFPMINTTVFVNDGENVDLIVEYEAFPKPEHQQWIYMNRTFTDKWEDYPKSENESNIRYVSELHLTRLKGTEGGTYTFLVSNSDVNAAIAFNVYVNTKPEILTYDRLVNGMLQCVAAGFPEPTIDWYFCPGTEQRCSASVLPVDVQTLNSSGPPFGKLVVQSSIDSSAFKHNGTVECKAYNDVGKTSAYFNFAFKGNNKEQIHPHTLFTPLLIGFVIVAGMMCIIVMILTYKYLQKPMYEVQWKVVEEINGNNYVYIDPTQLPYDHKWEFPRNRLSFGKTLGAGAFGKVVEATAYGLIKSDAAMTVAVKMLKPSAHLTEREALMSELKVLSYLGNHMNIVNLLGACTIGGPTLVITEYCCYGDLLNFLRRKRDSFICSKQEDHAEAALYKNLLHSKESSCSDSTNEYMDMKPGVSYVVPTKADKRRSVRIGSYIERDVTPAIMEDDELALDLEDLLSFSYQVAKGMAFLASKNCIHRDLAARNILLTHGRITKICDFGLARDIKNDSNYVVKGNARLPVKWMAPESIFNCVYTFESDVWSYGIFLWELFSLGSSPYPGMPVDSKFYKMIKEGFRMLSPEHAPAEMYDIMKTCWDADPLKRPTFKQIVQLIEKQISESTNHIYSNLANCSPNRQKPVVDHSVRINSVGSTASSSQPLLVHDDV
Sequence of Btk (Q06187 whole entry): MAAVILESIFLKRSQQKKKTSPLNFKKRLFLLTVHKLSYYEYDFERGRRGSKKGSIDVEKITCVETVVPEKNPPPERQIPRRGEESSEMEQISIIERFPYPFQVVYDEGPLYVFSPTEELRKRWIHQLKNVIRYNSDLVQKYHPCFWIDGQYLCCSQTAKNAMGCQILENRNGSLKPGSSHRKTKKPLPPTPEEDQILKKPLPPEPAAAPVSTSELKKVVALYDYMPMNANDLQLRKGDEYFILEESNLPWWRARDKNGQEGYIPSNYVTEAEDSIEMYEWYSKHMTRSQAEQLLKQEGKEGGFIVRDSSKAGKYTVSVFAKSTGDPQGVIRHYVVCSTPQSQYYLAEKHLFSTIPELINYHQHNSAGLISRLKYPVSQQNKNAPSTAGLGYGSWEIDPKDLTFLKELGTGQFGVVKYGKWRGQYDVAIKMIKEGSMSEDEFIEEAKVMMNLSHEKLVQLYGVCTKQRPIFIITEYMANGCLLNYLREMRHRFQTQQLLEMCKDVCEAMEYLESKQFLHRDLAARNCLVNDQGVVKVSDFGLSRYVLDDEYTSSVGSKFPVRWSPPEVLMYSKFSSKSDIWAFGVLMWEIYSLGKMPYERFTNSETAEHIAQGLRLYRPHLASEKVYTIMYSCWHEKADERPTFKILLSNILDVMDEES
Sequence of Kdr (P35968 20-1356): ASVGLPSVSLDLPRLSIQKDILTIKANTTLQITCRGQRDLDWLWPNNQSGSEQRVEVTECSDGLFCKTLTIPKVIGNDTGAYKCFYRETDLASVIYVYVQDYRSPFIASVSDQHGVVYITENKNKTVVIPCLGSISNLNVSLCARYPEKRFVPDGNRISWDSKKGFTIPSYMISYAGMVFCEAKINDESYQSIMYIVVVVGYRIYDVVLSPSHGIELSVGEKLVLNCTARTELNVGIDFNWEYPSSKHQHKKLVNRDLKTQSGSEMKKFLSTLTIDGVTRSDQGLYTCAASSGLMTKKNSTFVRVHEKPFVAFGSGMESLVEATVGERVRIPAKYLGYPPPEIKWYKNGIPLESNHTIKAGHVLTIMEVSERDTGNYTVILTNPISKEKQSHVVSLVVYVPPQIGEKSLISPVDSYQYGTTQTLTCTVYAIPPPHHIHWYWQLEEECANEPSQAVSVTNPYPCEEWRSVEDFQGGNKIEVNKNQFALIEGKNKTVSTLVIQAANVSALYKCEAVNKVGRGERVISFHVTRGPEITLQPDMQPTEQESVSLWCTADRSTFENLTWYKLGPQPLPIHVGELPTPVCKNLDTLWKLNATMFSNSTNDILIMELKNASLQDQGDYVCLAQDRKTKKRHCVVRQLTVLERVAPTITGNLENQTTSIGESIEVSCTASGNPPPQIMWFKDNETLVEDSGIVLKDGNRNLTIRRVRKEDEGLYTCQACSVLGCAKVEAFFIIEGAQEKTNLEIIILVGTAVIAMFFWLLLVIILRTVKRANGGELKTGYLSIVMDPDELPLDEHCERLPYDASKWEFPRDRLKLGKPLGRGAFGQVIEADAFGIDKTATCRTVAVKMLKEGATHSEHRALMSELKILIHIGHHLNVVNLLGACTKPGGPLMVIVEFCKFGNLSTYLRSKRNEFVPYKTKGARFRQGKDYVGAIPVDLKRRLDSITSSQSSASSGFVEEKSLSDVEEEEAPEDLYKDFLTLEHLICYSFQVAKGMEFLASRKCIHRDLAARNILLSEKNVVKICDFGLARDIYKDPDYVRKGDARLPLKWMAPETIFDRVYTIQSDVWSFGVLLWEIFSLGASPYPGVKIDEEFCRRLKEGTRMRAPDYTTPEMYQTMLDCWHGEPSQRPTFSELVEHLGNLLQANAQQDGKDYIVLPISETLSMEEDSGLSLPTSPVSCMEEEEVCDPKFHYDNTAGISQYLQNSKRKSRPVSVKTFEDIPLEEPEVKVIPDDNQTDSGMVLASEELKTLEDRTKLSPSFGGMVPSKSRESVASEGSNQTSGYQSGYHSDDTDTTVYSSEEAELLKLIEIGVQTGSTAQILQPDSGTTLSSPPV

COc1ccc(CNc2ccc(Cc3c[nH]c4nccnc34)cn2)cn1 [Compound P-0001, (6-methoxy-pyridin-3-ylmethyl)-[5-(5H-pyrrolo[2,3-b]pyrazin-7-ylmethyl)-pyridin-2-yl]-amine]
> 5.00: all assays above

Reference: US8119637B2, “Substituted pyrrolo[2,3-b]pyrazines and methods for kinase modulation, and indications therefor” (Plexxikon Inc., priority 2008, dated 2012)
